Where two headings read alike, the source gives them in different places.
Key:
Type in all cases: physicochemical
[1] = Average particle size measurement (Malvern Mastersizer 2000, particle size distribution); details: for Particle size distribution D(v,0.1) / Particle size distribution D(v,0.2) / Particle size distribution D(v,0.8) / Particle size distribution D(v,0.95) / Particle size distribution D(v,0.98) / Particle size distribution D(v,1.0) / Particle size distribution D(v,0.5) / Particle size distribution D(v,0.9): carrier liquid water; for Particle size distribution D(v,0.5): size for 50% of the particles; for Particle size distribution D(v,0.9): size for 90% of the particles; for D(V, 0.9): in µm (unit assumed)
Procedure: Average Particle Size Measurement: Particle size was measured by Malvern model Mastersizer 2000, equipped with Malvern Hydro G circulation cell. Carrier: liquid:water. System description: Measuring range: from 0.02-2000 μm. Accuracy: 1% on the Dv50 Light sources: Red light-helium neon laser. Blue light-solid state light source.

[2] = Bulk density (tapped density tester VanKel 50-2300)
Procedure: Bulk Density: Bulk density was measured using tapped density tester dual-platform model VanKel 50-2300 (Varian Inc.). System specifications. Speed: nominal rate of 300 taps per minute, Accuracy: Actual setting±1 tap, Drop height: 14±2 mm. Platform rotation: 5-15 rotations/minute.

[3] = Flowability / electrostatic charging of the ground material; details: ground by conventional mill
[4] = listed as Telmisartan form A, obtained by crystallization from water
[5] = listed as Telmisartan form A, obtained by crystallization from DMSO
[6] = Sonicated material with no milling

SMILES: CCCc1nc2c(C)cc(-c3nc4ccccc4n3C)cc2n1Cc1ccc(-c2ccccc2C(=O)O)cc1 [Example 4, Telmisartan]
- Particle size distribution D(v,0.1) [1]: 1.08 μ
- Particle size distribution D(v,0.2) [1]: 1.45 μ
- Particle size distribution D(v,0.8) [1]: 6.04 μ
- Particle size distribution D(v,0.95) [1]: 12.07 μ
- Particle size distribution D(v,0.98) [1]: 16.13 μ
- Particle size distribution D(v,1.0) [1]: 33.57 μ
- Particle size distribution D(v,0.5) [1]: 2.83 μ
- Particle size distribution D(v,0.5) ([1]; listed as Telmisartan form A, obtained by crystallization from DMF): less than 3 μ
- Particle size distribution D(v,0.9) [1]: 8.97 μ

SMILES: CCCc1nc2c(C)cc(-c3nc4ccccc4n3C)cc2n1Cc1ccc(-c2ccccc2C(=O)O)cc1 [Example 2, Telmisartan]
- Bulk density [2, 4]: about 0.22 g/ml
- Particle size distribution D(v,0.1) [1]: 0.35 μ
- Particle size distribution D(v,0.2) [1]: 0.85 μ
- Particle size distribution D(v,0.8) [1]: 11.90 μ
- Particle size distribution D(v,0.95) [1]: 23.03 μ
- Particle size distribution D(v,0.98) [1]: 30.08 μ
- Particle size distribution D(v,1.0) [1]: 52.871 μ
- Particle size distribution D(v,0.5) [1]: 4.33 μ
- Particle size distribution D(v,0.5) [1, 4]: about 4.3 μ
- Particle size distribution D(v,0.9) [1]: 17.48 μ
- Particle size distribution D(v,0.9) [1, 4]: about 17.5 μ

SMILES: CCCc1nc2c(C)cc(-c3nc4ccccc4n3C)cc2n1Cc1ccc(-c2ccccc2C(=O)O)cc1 [Example 1, Telmisartan]
- Bulk density [2]: about 0.3 g/ml
- Bulk density [2, 5]: about 0.3 g/ml
- Particle size distribution D(v,0.1) [1]: 1.60 μ
- Particle size distribution D(v,0.2) [1]: 2.25 μ
- Particle size distribution D(v,0.8) [1]: 11.46 μ
- Particle size distribution D(v,0.95) [1]: 22.21 μ
- Particle size distribution D(v,0.98) [1]: 29.03 μ
- Particle size distribution D(v,1.0) [1]: 52.87 μ
- Particle size distribution D(v,0.5) [1]: 4.98 μ
- Particle size distribution D(v,0.5) [1, 5]: about 5 μ
- Particle size distribution D(v,0.9) [1]: 16.78 μ
- Particle size distribution D(v,0.9) [1, 5]: about 17 μ
- Flowability of ground material [3]: free flowing crystalline powder that does not tend to gain electrostatic charge upon grinding

SMILES: CCCc1nc2c(C)cc(-c3nc4ccccc4n3C)cc2n1Cc1ccc(-c2ccccc2C(=O)O)cc1 [Example 7, Telmisartan]
- D(V, 0.1) ([1]; Ground material): 0.7 µm
- D(V, 0.5) ([1]; Ground material): 3.3 µm
- D(V, 0.9) ([1]; Ground material): 19.1
- D(V, 0.1) [1, 6]: 0.8 µm
- D(V, 0.5) [1, 6]: 8.1 µm
- D(V, 0.9) [1, 6]: 24.7
- D(V, 0.1) ([1]; Un-milled material): 51.4 µm
- D(V, 0.5) ([1]; Un-milled material): 245 µm
- D(V, 0.9) ([1]; Un-milled material): 578.2

Reference: patent US20060276525A1, “Processes of preparing highly pure telmisartan form A, suitable for pharmaceutical compositions” (priority 2005, published 2006)
